This note sets out measurements from patent publication US20240139136A1, “METHODS AND FORMULATIONS FOR TOPICAL ADMINISTRATION OF GABAPENTINOIDS” (VYLUMA INC., priority 2021, published 2024).

Structures are written as SMILES.

The subject of this experiment is rats with post-surgical corneal injuries. Put plainly: Capsaicin-induced ipsilateral paw (eye) wipes in rats with post-surgical corneal injury. Type of experiment: in vivo. The note with it: 3% ophthalmic formulation, topical; challenge with 40 μL 0.1% capsaicin 15 minutes after administration; compared with capsaicin-alone baseline; FIG. 1. The method, then: Test ophthalmic formulations were administered to rats with post-surgical corneal injuries to test the efficacy of the formulations in treating corneal pain. A negative control was established by treating all animals with artificial tears (AT) and counting ipsilateral paw wipes for 60 seconds (FIG. 1, Baseline (Pre-induction)). 20 minutes later, a positive control was established by treating all animals with 40 μL 0.1% capsaicin and counting ipsilateral paw wipes for 60 seconds (FIG. 1, Baseline). Eyes were then flushed with balanced salt solution (BSS) and AT. 20 minutes later, all animals were treated with the test ophthalmic formulation (0.5% proparacaine (positive control), 3% nalbuphine, 3% pregabalin, or 3% ketamine). 15 minutes later, all animals were treated with 40 μL 0.1% capsaicin, and ipsilateral paw wipes were counted for 60 seconds (FIG. 1, 15 Minutes).
`CNC1(c2ccccc2Cl)CCCCC1=O` (stereo not drawn) [ketamine]: the “eye wipes (ipsilateral paw wipes counted for 60 seconds)” value is given as “borderline response”.
With `Oc1ccc2c3c1O[C@H]1[C@@H](O)CC[C@@]4(O)[C@@H](C2)N(CC2CCC2)CC[C@]314` [nalbuphine] the entry was “significant decrease”.
Next, `CC(C)C[C@H](CN)CC(=O)O` [pregabalin]: “significant decrease”.
